Several values for one entry are separate records, joined by “and”; a condition that tells them apart may be missing. Equal values may be shown once. Marks after values point to notes of the source that are not given here.
What was measured:
[1] = Baseline screening BCF (0.0125 DMLW, equilibrium partitioning, no biotransformation); conditions: for Log baseline BCF: determined as 0.0125 DMLW
Excerpt: Recently, the concept of a baseline screening BCF was introduced for surfactants, based on equilibrium partitioning assuming no biotransformation.[19] The baseline screening BCF for the study chemicals exceeded the measured BCF by 1–2.5 orders of magnitude (Table S16), providing further evidence that biotransformation is an important factor influencing the elimination—and thereby the BCF—of the anionic surfactants studied here in rainbow trout. The deviation of PFOA and PFOS from the regression between BCF and DMLW (Figure 1, upper panel) is attributable to them not being biotransformed.
Table S16: Comparison of the BCF (determined with the measured concentrations in water) and the baseline screening BCF (determined as 0.0125 DMLWa)
CHEMICAL Log BCF Log baseline BCF Log difference […]
a Droge, S. T. J.; Scherpenisse, P.; Arnot, J. A.; Armitage, J. M.; McLachlan, M. S.; Nichols, J.; von der Ohe, P.; Bonnell, M.; Hodges, G. Screening the baseline fish bioconcentration potential of various types of surfactants using phospholipid binding data. Environ. Sci.: Processes Impacts

[2] = marked * = measured; used for IVIVE; same values as Table 3; cited from earlier work
[3] = test system: rainbow trout; test: In vivo bioconcentration experiment with a mixture of anionic surfactants, flow-through aquaria, 10 °C, pH 7.8; conditions: for Log BCF: determined with measured concentrations in water; for Concentration in fish: individual fish
Description: The bioconcentration of a mixture of 10 anionic surfactants was measured in rainbow trout in water at pH 7.8. […] The experiment was conducted in flow-through aquaria with juvenile rainbow trout at 10 °C. Ethical approval for the experiments was obtained from Stockholms […] (decision 9967-2017). The fish, fish housing, fish handling, and procedure for introducing the mixture of […] chemicals were very similar to our previous study with cationic surfactants;[5] details are provided in Text S1. The experiment consisted of a 4-day exposure phase and a 7-day depuration phase. […] Water samples were collected and fish were sacrificed according to the schedule in Table S4. The water samples were collected just prior to the daily removal of feces from the aquarium. Triplicate samples were taken at each time point. […] The water/methanol mixture was analyzed using liquid chromatography-mass spectrometry (LC-MS)/MS as described below for fish. At each fish sampling, five fish were sacrificed. Following stunning and severance of the spinal cord, the whole fish were placed in a polyethylene bag, weighed, and immediately frozen at -20 °C. The weight of the individual fish at sacrifice was 24.0 ± 5.6 g. Three of the five fish from each time point were prioritized for analysis based on proximity to the median fish weight. Each fish was […] homogenized with an Ultra-turrax dispersing device. […] This mixture was homogenized in a bullet blender for 5 min and then placed in an ultrasound bath at 45 °C for 15 min. Following centrifugation for 15 min@3200 RCF, the supernatant was decanted and the extraction was repeated. The extracts were combined. For instrumental analysis, 5 μL of the fish extract or 60 μL of the water/methanol mixture (water samples) was separated on an Acquity UPLC BEH C18 column fitted with a BEH C18 pre-column and analyzed on a TSQ Quantiva triple quadrupole mass spectrometer. The mobile phase was methanol (10 mM ammonium acetate) and Milli-Q-filtered water (10 mM ammonium acetate) (see Table S5 for the liquid chromatography program). To avoid detergent blank peaks originating from cleaning mobile phase bottles, the methanol was prepared directly in the solvent bottle as delivered and Milli-Q was tapped into an empty methanol bottle. Furthermore, a guard column was fitted between the mobile phase and the autosampler to prevent background contamination from disturbing the analysis. All analytes were quantified against the BEHP internal standard, as it gave better reproducibility. […] The central goal of the analysis was to estimate kU and kT as well as the BCF (=kU/kT) from measurements of surfactant concentration in fish and water samples collected at different time points of the experiment. For the fish, only those time points were included for which CF(measured) was above the limit of quantitation (LOQ) in all three fish (data below the LOQ will have a positive bias; including them would result in a negative bias in kT). In this analysis, there exist two sources of uncertainty: first, uncertainty in the actual concentration in water CW at the time of sample collection and second, variability in the concentration in fish around the (expected) surfactant concentrations in fish assumed to follow model (1). We therefore set up a model in which we considered uncertainty in both water and fish measurements simultaneously by assuming a parametric model for the surfactant concentration in the water over time (either linear or quadratic) and accounted for the uncertainty in the corresponding parameters of the water model during the estimation of kU and kT. This was done in a joint Bayesian model that we estimated via Hamiltonian Monte Carlo. […]

[4] = determined using nominal concentrations in water
[5] = from measured concentrations in water, Bayesian estimate, 95% credible interval in brackets
[6] = measured concentrations in water, simpler estimation method (Text S3), 95% confidence intervals in brackets

Compound | Log difference (baseline BCF vs BCF) [1] [L kg-1 ww] | Log baseline BCF [1] [L kg-1 ww] | log DMW, membrane-water distribution ratio [2] | BCF [3, 4] [L kg-1 ww] | Log BCF [3] [L kg-1 ww] | Concentration in fish ([3]; elimination phase, 97 h) | Concentration in fish ([3]; elimination phase, 98 h) | Concentration in fish ([3]; elimination phase, 100 h) | Concentration in fish ([3]; elimination phase, 103 h) | Concentration in fish ([3]; elimination phase, 120 h) | Concentration in fish ([3]; elimination phase, 128 h) | Concentration in fish ([3]; elimination phase, 144 h) | Concentration in fish ([3]; elimination phase, 168 h) | Concentration in fish ([3]; elimination phase, 192 h) | Concentration in fish ([3]; elimination phase, 264 h) | Concentration in fish ([3]; exposure phase, 1 h) | Concentration in fish ([3]; exposure phase, 2 h) | Concentration in fish ([3]; exposure phase, 3 h) | Concentration in fish ([3]; exposure phase, 4 h) | Concentration in fish ([3]; exposure phase, 6 h) | further results
CCCCCCCCCCCS(=O)(=O)O [C11SO3, undecylsulfonate] | 2.35 | 1.49 | 3.39 | 0.137 | -0.87 | 5.5 ng g-1 ww and 3.8 ng g-1 ww and 3.2 ng g-1 ww | 3.2 ng g-1 ww and 2.8 ng g-1 ww and 30.6 ng g-1 ww | 14.1 ng g-1 ww and 2.8 ng g-1 ww and 3.1 ng g-1 ww | 2.2 ng g-1 ww and 3.0 ng g-1 ww and 6.7 ng g-1 ww | 0.58 ng g-1 ww and 0.87 ng g-1 ww and 0.78 ng g-1 ww | 0.53 ng g-1 ww and 0.50 ng g-1 ww and 0.58 ng g-1 ww | 0.49 ng g-1 ww and 0.42 ng g-1 ww and 0.53 ng g-1 ww | 0.56 ng g-1 ww and 0.41 ng g-1 ww and 0.22 ng g-1 ww | 0.10 ng g-1 ww and 0.19 ng g-1 ww (2×) | 1.49 ng g-1 ww and 0.23 ng g-1 ww and 0.19 ng g-1 ww | 3.2 ng g-1 ww and 1.5 ng g-1 ww and 8.4 ng g-1 ww | 2.1 ng g-1 ww and 1.9 ng g-1 ww and 1.4 ng g-1 ww | 2.9 ng g-1 ww and 3.6 ng g-1 ww and 3.2 ng g-1 ww | 3.5 ng g-1 ww and 13.4 ng g-1 ww and 41 ng g-1 ww | 4.7 ng g-1 ww and 5.0 ng g-1 ww and 3.8 ng g-1 ww | Concentration in fish ([3]; exposure phase, 24 h): 5.5 ng g-1 ww and 4.2 ng g-1 ww and 3.8 ng g-1 ww; Concentration in fish ([3]; exposure phase, 48 h): 4.4 ng g-1 ww and 5.1 ng g-1 ww and 3.7 ng g-1 ww; Concentration in fish ([3]; exposure phase, 72 h): 7.2 ng g-1 ww and 5.2 ng g-1 ww and 4.9 ng g-1 ww; Concentration in fish ([3]; exposure phase, 96 h): 8.1 ng g-1 ww and 7.8 ng g-1 ww and 5.3 ng g-1 ww; BCF (steady-state) ([3]; steady-state BCF, plateau 6-96 h, measured concentrations in water, 95% confidence interval in brackets): 0.136 ^d (0.114–0.158) L kg^–1 ww
CCCCCCCCCCCOS(=O)(=O)O [C11SO4, undecylsulfate] | 2.37 | 2.26 | 4.16 | 0.57 | -0.11 | 5.9 ng g-1 ww and 5.5 ng g-1 ww and 6.7 ng g-1 ww | 4.6 ng g-1 ww and 4.4 ng g-1 ww and 3.8 ng g-1 ww | 6.6 ng g-1 ww and 3.0 ng g-1 ww and 3.5 ng g-1 ww | 1.5 ng g-1 ww and 2.0 ng g-1 ww and 2.7 ng g-1 ww | 1.06 ng g-1 ww and 0.77 ng g-1 ww and 0.51 ng g-1 ww | 0.66 ng g-1 ww and 0.48 ng g-1 ww and 0.54 ng g-1 ww | 0.53 ng g-1 ww and 0.27 ng g-1 ww and 0.19 ng g-1 ww | 0.59 ng g-1 ww and 0.22 ng g-1 ww and 0.17 ng g-1 ww | 0.08 ng g-1 ww and 0.13 ng g-1 ww and 0.09 ng g-1 ww | 0.84 ng g-1 ww and 0.15 ng g-1 ww (2×) | 3.1 ng g-1 ww and 3.6 ng g-1 ww and 4.1 ng g-1 ww | 5.6 ng g-1 ww and 4.4 ng g-1 ww and 4.1 ng g-1 ww | 7.5 ng g-1 ww and 9.4 ng g-1 ww and 7.6 ng g-1 ww | 10.7 ng g-1 ww and 11.2 ng g-1 ww and 18.0 ng g-1 ww | 15.8 ng g-1 ww and 14.7 ng g-1 ww and 14.1 ng g-1 ww | Elimination rate constant kT [3, 4]: 0.233 h⁻¹; Uptake rate constant kU [3, 4]: 0.133 L/kg/h; Concentration in fish ([3]; exposure phase, 24 h): 18.5 ng g-1 ww and 15.1 ng g-1 ww and 10.9 ng g-1 ww; Concentration in fish ([3]; exposure phase, 48 h): 7.4 ng g-1 ww and 12.0 ng g-1 ww and 11.2 ng g-1 ww; Concentration in fish ([3]; exposure phase, 72 h): 12.6 ng g-1 ww and 8.7 ng g-1 ww and 8.2 ng g-1 ww; Concentration in fish ([3]; exposure phase, 96 h): 9.9 ng g-1 ww and 8.7 ng g-1 ww and 14.1 ng g-1 ww; Elimination rate constant kT [3, 5]: 0.178 (0.151–0.206) h^–1; Uptake rate constant kU [3, 5]: 0.136 (0.113–0.163) L kg^–1 ww h^–1; diffusion coefficient (D) in the epithelial membrane of the gills ([3]; in vivo): 3.7 × 10^–8 m h^–1; BCF (kinetic) ([3]; kinetic BCF from measured concentrations in water, 95% credible interval in brackets): 0.77 (0.68–0.87) L kg^–1 ww; BCF [3, 6]: 0.74 (33) L kg-1 ww; Elimination rate constant kT [3, 6]: 0.179 (19) h-1; Uptake rate constant kU [3, 6]: 0.133 (27) L kg-1 ww h-1; BCF ([3]; own values): 0.77 L kg^–1
